As usually defined, the T/C is the result in the treated group divided by that in the control group, in per cent.

Values after ≈ are worked out from the molar mass of the structure shown.

From ChEMBL document CHEMBL1149022, “Antitumor agents, 85. Cicutoxin, an antileukemic principle from Cicuta maculata, and the cytotoxicity of the related derivatives” (1986) come the findings set out here.

For one experiment, the system named is P388. The experiment is described as follows: Antileukemic activity against mouse P388 cells xenografted in mouse at 200 mg/kg dosed for 1 day relative to control. In kind it is functional.
Conditions: not given
Regarding `O=c1[nH]cc(F)c(=O)[nH]1` [FLUOROURACIL], the T/C is on record as 135%.

In the next experiment the test system is P388. The experiment is described as follows: Antileukemic activity against mouse P388 cells xenografted in mouse at 1 mg/kg dosed for 3 days relative to control.
Conditions: not given
In kind it is functional.
On to `CCC[C@@H](O)/C=C/C=C/C=C/C#CC#CCCCO` [CICUTOXIN], for which the T/C amounted to 165%.

The test system of another experiment is KB. The experiment is described as follows: Cytotoxicity against human KB cells. It is filed as functional. Conditions: read-out: ED50 (the source's name).
For `CCCC(=O)/C=C/C=C/C=C/C#CC#CCCCO`, the EC50 was over 4 µg/mL. The same measure, in the same setting: to `CCCC(O)CCCCCCCCCCCCCO` (centres undefined) belongs over 4 µg/mL; to `CCC[C@@H](O)/C=C/C=C/C=C/C#CC#CCCCO` [CICUTOXIN], 2 µg/mL (≈ 7.74 µM); to `CCCC(/C=C/C=C/C=C/C#CC#CCCCOC(C)=O)OC(C)=O` (centres undefined), over 4 µg/mL. As for `CCCC(O)/C=C/C=C/C=C/C#CC#CCCCOC(=O)c1ccccc1` (centres undefined), the EC50 is over 4 µg/mL. Take `CCCC(/C=C/C=C/C=C/C#CC#CCCCOCOCc1ccccc1)OCOCc1ccccc1` (centres undefined): the EC50 is over 4 µg/mL. With `CCCC(/C=C/C=C/C=C/C#CC#CCCCOCOCCOC)OCOCCOC` (centres undefined), the EC50 was over 4 µg/mL.
